Measured values taken from ChEMBL document CHEMBL4261503, “Scaffold hopping via ANCHOR.QUERY: β-lactams as potent p53-MDM2 antagonists†” (Medchemcomm, 2017).

How the values were obtained:
[1] = biological target: E3 ubiquitin-protein ligase Mdm2 (Homo sapiens, UniProt Q00987)
[2] = biological target: T1, Protein Mdm4 (Homo sapiens, UniProt O15151)
T1 sequence (O15151 whole entry): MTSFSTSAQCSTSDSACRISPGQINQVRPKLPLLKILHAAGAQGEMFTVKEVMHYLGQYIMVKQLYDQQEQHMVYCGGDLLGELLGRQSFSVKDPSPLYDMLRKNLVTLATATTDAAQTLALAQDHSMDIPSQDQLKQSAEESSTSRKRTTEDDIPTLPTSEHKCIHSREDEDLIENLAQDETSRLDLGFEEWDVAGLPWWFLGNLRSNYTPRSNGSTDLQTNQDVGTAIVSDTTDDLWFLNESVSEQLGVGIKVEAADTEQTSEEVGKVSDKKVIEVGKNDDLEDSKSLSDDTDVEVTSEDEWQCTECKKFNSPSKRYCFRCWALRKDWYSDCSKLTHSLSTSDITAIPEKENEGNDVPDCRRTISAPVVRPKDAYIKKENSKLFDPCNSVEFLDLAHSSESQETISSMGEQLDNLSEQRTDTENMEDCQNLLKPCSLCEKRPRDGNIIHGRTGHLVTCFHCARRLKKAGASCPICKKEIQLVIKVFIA

Sequence of E3 ubiquitin-protein ligase Mdm2 (Q00987 whole entry): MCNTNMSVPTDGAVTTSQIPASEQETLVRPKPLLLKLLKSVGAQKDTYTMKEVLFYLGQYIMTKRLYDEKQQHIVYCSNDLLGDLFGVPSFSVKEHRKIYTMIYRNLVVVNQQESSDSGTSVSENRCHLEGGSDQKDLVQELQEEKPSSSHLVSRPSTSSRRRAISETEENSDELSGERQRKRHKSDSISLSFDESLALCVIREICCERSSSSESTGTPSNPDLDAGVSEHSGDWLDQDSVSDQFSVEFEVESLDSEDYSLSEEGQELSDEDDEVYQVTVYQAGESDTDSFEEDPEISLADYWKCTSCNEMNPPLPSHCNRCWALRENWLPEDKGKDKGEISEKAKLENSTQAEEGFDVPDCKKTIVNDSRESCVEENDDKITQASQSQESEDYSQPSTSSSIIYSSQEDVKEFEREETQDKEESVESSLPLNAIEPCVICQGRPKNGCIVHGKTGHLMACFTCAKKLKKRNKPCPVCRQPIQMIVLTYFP

Row | Structure (SMILES) | Ki [1] | Ki [2]
1 | O=C(NC12CC3CC(CC(C3)C1)C2)C(c1ccc(Cl)cc1)N1C(=O)CC1c1ccc(OCc2ccccc2)cc1 (single isomer, unassigned; diastereomer A) | Not Active | Not Active
2 | CC(C)(C)NC(=O)C(c1ccc(Cl)cc1)N1C(=O)CC1c1ccc(OCc2ccccc2)cc1 (mixture of isomers) | Not Active | Not Active
